Structures can show the parent of a compound that is named as a salt.
Assays:
ISC-enriched organoids [1] = assay: Primary screen, 384-well 2.5-D organoid differentiation (ENR+CD, 6 days): basal lysozyme secretion (LYZ.NS); type: cell-based, murine; settings: primary screen; for Dose.FC.LYZ.NS: FC vs plate median; for Z.LYZ.NS: standard z score; for SSMD.LYZ.NS: strictly standardized mean difference
From the text: (§1) High-throughput screening.

ISC-enriched organoids [2] = assay: Primary screen, 384-well 2.5-D organoid differentiation (ENR+CD, 6 days, Target Selective Inhibitor Library, vs whole-plate median): ATP (CellTiter-Glo 3D, CTG); settings: primary screen; for Dose.FC.CTG: FC vs plate median; for Z.CTG: standard z score; for SSMD.CTG: strictly standardized mean difference
ISC-enriched organoids [3] = assay: Primary screen, 384-well 2.5-D organoid differentiation (ENR+CD, 6 days): carbachol-induced lysozyme secretion (LYZ.S); type: cell-based, murine; settings: primary screen; for Dose.FC.LYZ.S: FC vs plate median; for Z.LYZ.S: standard z score; for SSMD.LYZ.S: strictly standardized mean difference
From the text: as §1

[4] = 1st of the 4 dose lines of the treatment (dose not given)
[5] = 2nd of the 4 dose lines of the treatment (dose not given)
[6] = 3rd of the 4 dose lines of the treatment (dose not given)
[7] = 4th of the 4 dose lines of the treatment (dose not given)

Structure (SMILES) | SSMD.LYZ.NS (ISC-enriched organoids [1]; [4]) | SSMD.LYZ.NS (ISC-enriched organoids [1]; [5]) | SSMD.LYZ.NS (ISC-enriched organoids [1]; [6]) | SSMD.LYZ.NS (ISC-enriched organoids [1]; [7]) | Z.CTG (ISC-enriched organoids [2]; Dose 0.08 uM) | Z.CTG (ISC-enriched organoids [2]; Dose 0.40 uM) | Z.CTG (ISC-enriched organoids [2]; Dose 2.00 uM) | Z.CTG (ISC-enriched organoids [2]; Dose 10.00 uM) | SSMD.CTG (ISC-enriched organoids [2]; [4]) | SSMD.CTG (ISC-enriched organoids [2]; [5]) | SSMD.CTG (ISC-enriched organoids [2]; [6]) | SSMD.CTG (ISC-enriched organoids [2]; [7]) | Z.LYZ.S (ISC-enriched organoids [3]; [4]) | Z.LYZ.S (ISC-enriched organoids [3]; [5]) | Z.LYZ.S (ISC-enriched organoids [3]; [6]) | Z.LYZ.S (ISC-enriched organoids [3]; [7]) | SSMD.LYZ.S (ISC-enriched organoids [3]; [4]) | SSMD.LYZ.S (ISC-enriched organoids [3]; [5]) | SSMD.LYZ.S (ISC-enriched organoids [3]; [6]) | SSMD.LYZ.S (ISC-enriched organoids [3]; [7]) | also measured
CNC(=O)[C@H](Cc1c[nH]c2ccccc12)NC(=O)[C@@H](CC(=O)NO)CC(C)C [Ilomastat (GM6001, Galardin)] | 0.305 | −0.056 | 0.066 | −0.635 | 0.470 | 0.389 | 0.216 | −0.264 | 0.482 | 0.406 | 0.321 | −0.348 | 1.385 | 0.754 | 0.153 | −0.502 | 1.175 | 0.580 | 0.164 | −0.329 | Dose.FC.LYZ.NS (ISC-enriched organoids [1]; Dose 0.08 uM): 0.055 log 2 fold change; Z.LYZ.NS (ISC-enriched organoids [1]; Dose 0.08 uM): 0.482; Dose.FC.LYZ.NS (ISC-enriched organoids [1]; Dose 0.40 uM): −0.011 log 2 fold change; Z.LYZ.NS (ISC-enriched organoids [1]; Dose 0.40 uM): −0.092; Dose.FC.LYZ.NS (ISC-enriched organoids [1]; Dose 2.00 uM): 0.007 log 2 fold change; Z.LYZ.NS (ISC-enriched organoids [1]; Dose 2.00 uM): 0.064; Dose.FC.LYZ.NS (ISC-enriched organoids [1]; Dose 10.00 uM): −0.106 log 2 fold change; Z.LYZ.NS (ISC-enriched organoids [1]; Dose 10.00 uM): −0.919; Dose.FC.CTG (ISC-enriched organoids [2]; Dose 0.08 uM): 0.197 log 2 fold change; Dose.FC.CTG (ISC-enriched organoids [2]; Dose 0.40 uM): 0.163 log 2 fold change; Dose.FC.CTG (ISC-enriched organoids [2]; Dose 2.00 uM): 0.091 log 2 fold change; Dose.FC.CTG (ISC-enriched organoids [2]; Dose 10.00 uM): −0.110 log 2 fold change; Dose.FC.LYZ.S (ISC-enriched organoids [3]; Dose 0.08 uM): 0.214 log 2 fold change; Dose.FC.LYZ.S (ISC-enriched organoids [3]; Dose 0.40 uM): 0.117 log 2 fold change; Dose.FC.LYZ.S (ISC-enriched organoids [3]; Dose 2.00 uM): 0.024 log 2 fold change; Dose.FC.LYZ.S (ISC-enriched organoids [3]; Dose 10.00 uM): −0.078 log 2 fold change
CCOC(=O)[C@H](CCc1ccccc1)N[C@@H](C)C(=O)N1C(=O)N(C)C[C@H]1C(=O)O [Imidapril HCl] | −0.047 | 0.004 | 0.101 | −0.541 | −0.796 | −0.354 | −0.564 | −0.543 | −1.054 | −0.525 | −0.548 | −0.699 | −0.274 | 0.702 | −0.226 | −0.487 | −0.269 | 0.315 | −0.262 | −0.404 | 
NC(=O)c1ccc(I)c([N+](=O)[O-])c1 [Iniparib (BSI-201)] | 0.375 | 0.003 | 0.109 | −0.163 | 0.810 | 0.432 | 0.375 | 0.583 | 0.883 | 0.347 | 0.475 | 0.721 | 0.205 | 0.229 | −0.006 | −0.062 | 0.148 | 0.247 | −0.005 | −0.070 | Dose.FC.LYZ.NS (ISC-enriched organoids [1]; Dose 0.08 uM): 0.042 log 2 fold change; Z.LYZ.NS (ISC-enriched organoids [1]; Dose 0.08 uM): 0.364; Dose.FC.LYZ.NS (ISC-enriched organoids [1]; Dose 0.40 uM): 0.000 log 2 fold change; Z.LYZ.NS (ISC-enriched organoids [1]; Dose 0.40 uM): 0.003; Dose.FC.LYZ.NS (ISC-enriched organoids [1]; Dose 2.00 uM): 0.016 log 2 fold change; Z.LYZ.NS (ISC-enriched organoids [1]; Dose 2.00 uM): 0.138; Dose.FC.LYZ.NS (ISC-enriched organoids [1]; Dose 10.00 uM): −0.016 log 2 fold change; Z.LYZ.NS (ISC-enriched organoids [1]; Dose 10.00 uM): −0.139; Dose.FC.CTG (ISC-enriched organoids [2]; Dose 0.08 uM): 0.339 log 2 fold change; Dose.FC.CTG (ISC-enriched organoids [2]; Dose 0.40 uM): 0.181 log 2 fold change; Dose.FC.CTG (ISC-enriched organoids [2]; Dose 2.00 uM): 0.157 log 2 fold change; Dose.FC.CTG (ISC-enriched organoids [2]; Dose 10.00 uM): 0.244 log 2 fold change; Dose.FC.LYZ.S (ISC-enriched organoids [3]; Dose 0.08 uM): 0.032 log 2 fold change; Dose.FC.LYZ.S (ISC-enriched organoids [3]; Dose 0.40 uM): 0.035 log 2 fold change; Dose.FC.LYZ.S (ISC-enriched organoids [3]; Dose 2.00 uM): −0.001 log 2 fold change; Dose.FC.LYZ.S (ISC-enriched organoids [3]; Dose 10.00 uM): −0.010 log 2 fold change
CCc1c2c(nc3ccc(OC(=O)N4CCC(N5CCCCC5)CC4)cc13)-c1cc3c(c(=O)n1C2)COC(=O)[C@]3(O)CC [Irinotecan HCl Trihydrate] | −0.182 | −0.831 | −1.832 | −2.032 | −0.199 | −0.491 | −0.758 | −1.404 | −0.305 | −0.694 | −1.060 | −1.809 | −0.261 | −1.020 | −1.895 | −2.375 | −0.311 | −0.747 | −1.550 | −1.941 | 
CCc1c2c(nc3ccc(OC(=O)N4CCC(N5CCCCC5)CC4)cc13)-c1cc3c(c(=O)n1C2)COC(=O)[C@]3(O)CC [Irinotecan] | −0.217 | −0.556 | −1.415 | −1.102 | −0.265 | −1.872 | −1.875 | −2.951 | −0.378 | −1.558 | −1.491 | −2.716 | −0.023 | −0.939 | −1.596 | −1.624 | −0.018 | −0.721 | −1.400 | −1.217 | 
Cc1ccc(C(=O)N(CCCN)[C@@H](c2nc3cc(Cl)ccc3c(=O)n2Cc2ccccc2)C(C)C)cc1 [Ispinesib (SB-715992)] | −1.681 | −1.354 | −1.617 | −1.093 | −0.772 | −1.238 | −1.220 | −1.704 | −0.942 | −0.971 | −1.118 | −1.236 | −1.753 | −1.914 | −1.859 | −1.850 | −1.495 | −1.509 | −1.657 | −1.525 | Dose.FC.LYZ.NS (ISC-enriched organoids [1]; Dose 0.08 uM): −0.222 log 2 fold change; Z.LYZ.NS (ISC-enriched organoids [1]; Dose 0.08 uM): −1.931; Dose.FC.LYZ.NS (ISC-enriched organoids [1]; Dose 0.40 uM): −0.191 log 2 fold change; Z.LYZ.NS (ISC-enriched organoids [1]; Dose 0.40 uM): −1.663; Dose.FC.LYZ.NS (ISC-enriched organoids [1]; Dose 2.00 uM): −0.196 log 2 fold change; Z.LYZ.NS (ISC-enriched organoids [1]; Dose 2.00 uM): −1.709; Dose.FC.LYZ.NS (ISC-enriched organoids [1]; Dose 10.00 uM): −0.201 log 2 fold change; Z.LYZ.NS (ISC-enriched organoids [1]; Dose 10.00 uM): −1.752; Dose.FC.CTG (ISC-enriched organoids [2]; Dose 0.08 uM): −0.323 log 2 fold change; Dose.FC.CTG (ISC-enriched organoids [2]; Dose 0.40 uM): −0.518 log 2 fold change; Dose.FC.CTG (ISC-enriched organoids [2]; Dose 2.00 uM): −0.511 log 2 fold change; Dose.FC.CTG (ISC-enriched organoids [2]; Dose 10.00 uM): −0.713 log 2 fold change; Dose.FC.LYZ.S (ISC-enriched organoids [3]; Dose 0.08 uM): −0.271 log 2 fold change; Dose.FC.LYZ.S (ISC-enriched organoids [3]; Dose 0.40 uM): −0.296 log 2 fold change; Dose.FC.LYZ.S (ISC-enriched organoids [3]; Dose 2.00 uM): −0.287 log 2 fold change; Dose.FC.LYZ.S (ISC-enriched organoids [3]; Dose 10.00 uM): −0.286 log 2 fold change

Source: patent US20230398130A1, “METHODS AND COMPOSITIONS FOR DIFFERENTIATING STEM CELLS” (Massachusetts Institute of Technology, priority 2020, published 2023)
